Experiments:
Assay type in all cases: biochemical
[1] = target: T1, human CSNK1A1 (Homo sapiens (Human), UniProt P48729); assay: CSNK1A1 Assay 2 (ADP-Glo, 1 μM ATP); conditions: substrate biotin-Ahx-KRRRAL-pS-VASLPGL, read-out: CSNK1A1 Assay 2 IC50 [mol/l] (median)
Procedure, shortened: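 Full-length human CSNK1A1 as an N-terminal GST fusion (baculovirus/insect cells) with biotinylated peptide substrate biotin-Ahx-KRRRAL-pS-VASLPGL and 1 μM ATP, in HEPES pH 7.5 buffer. Compounds were pre-incubated with enzyme (~0.0375 ng/μL) for 15 min at 22 °C. Generated ADP was read by ADP-Glo luminescence as the activity measure.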

[2] = target: wild-type Epidermal Growth Factor Receptor (EGFR) (Homo sapiens (Human), UniProt P00533); assay: WT-EGFR Kinase Assay (TR-FRET, 2 mM ATP); conditions: read-out: EGFR Wildtyp- 2 mM ATP IC50 [mol/l] (median)
Sequence of wild-type Epidermal Growth Factor Receptor (EGFR) (P00533 669-1210): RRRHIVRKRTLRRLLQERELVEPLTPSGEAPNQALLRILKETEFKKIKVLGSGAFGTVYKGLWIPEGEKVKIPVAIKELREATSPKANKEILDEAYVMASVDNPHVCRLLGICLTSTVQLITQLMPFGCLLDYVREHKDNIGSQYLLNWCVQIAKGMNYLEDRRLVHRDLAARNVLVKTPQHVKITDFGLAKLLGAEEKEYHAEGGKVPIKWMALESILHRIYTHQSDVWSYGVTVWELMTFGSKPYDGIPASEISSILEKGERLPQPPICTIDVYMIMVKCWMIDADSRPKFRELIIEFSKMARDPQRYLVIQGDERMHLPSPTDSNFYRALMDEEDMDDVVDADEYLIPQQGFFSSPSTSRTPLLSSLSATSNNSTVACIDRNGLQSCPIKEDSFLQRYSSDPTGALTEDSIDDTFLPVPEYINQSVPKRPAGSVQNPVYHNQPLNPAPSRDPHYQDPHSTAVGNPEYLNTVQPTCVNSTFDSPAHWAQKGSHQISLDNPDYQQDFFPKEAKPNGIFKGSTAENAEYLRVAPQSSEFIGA

[3] = target: T1, human CSNK1A1; assay: CSNK1A1 High ATP Assay (ADP-Glo, 1 mM ATP); conditions: read-out: CSNK1A1 high ATP assay IC50 [mol/l] (median)
Procedure, shortened: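 Kinase activity taken as ADP generated, quantified by ADP-Glo luminescence after 1 h ATP depletion and 1 h detection at 22 °C. Enzyme is GST–full-length human CSNK1A1 (insect cell-expressed), pre-bound to compound for 15 min, with phosphopeptide substrate and 1 mM ATP.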

[4] = target: human CSNK1D (Homo sapiens (Human), UniProt P48730); assay: CSNK1D Assay (ADP-Glo, 1 μM ATP); conditions: read-out: CSNK1D IC50 [mol/l] (median)
Sequence of human CSNK1D (P48730 whole entry): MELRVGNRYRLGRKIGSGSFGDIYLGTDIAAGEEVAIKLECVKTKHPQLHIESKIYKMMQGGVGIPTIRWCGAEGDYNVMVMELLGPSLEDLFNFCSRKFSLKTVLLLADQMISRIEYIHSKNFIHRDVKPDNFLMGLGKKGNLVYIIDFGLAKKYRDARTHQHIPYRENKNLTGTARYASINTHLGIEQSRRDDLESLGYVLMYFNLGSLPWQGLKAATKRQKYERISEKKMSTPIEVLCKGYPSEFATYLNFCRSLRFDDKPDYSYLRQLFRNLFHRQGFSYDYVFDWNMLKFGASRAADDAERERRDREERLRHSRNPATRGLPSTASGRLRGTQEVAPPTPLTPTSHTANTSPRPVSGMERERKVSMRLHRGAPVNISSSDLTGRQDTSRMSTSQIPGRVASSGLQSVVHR
Procedure, shortened: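 Activity is read as ADP produced, by ADP-Glo luminescence after 1 h steps at 22 °C. The reaction uses 1 μM ATP, a biotinylated peptide and insect-cell-expressed GST–CSNK1D (about 0.5 ng/μL) in pH 7.5 HEPES buffer, with 15 min compound–enzyme preincubation.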

T1 sequence (P48729 whole entry, the tested form may be a part): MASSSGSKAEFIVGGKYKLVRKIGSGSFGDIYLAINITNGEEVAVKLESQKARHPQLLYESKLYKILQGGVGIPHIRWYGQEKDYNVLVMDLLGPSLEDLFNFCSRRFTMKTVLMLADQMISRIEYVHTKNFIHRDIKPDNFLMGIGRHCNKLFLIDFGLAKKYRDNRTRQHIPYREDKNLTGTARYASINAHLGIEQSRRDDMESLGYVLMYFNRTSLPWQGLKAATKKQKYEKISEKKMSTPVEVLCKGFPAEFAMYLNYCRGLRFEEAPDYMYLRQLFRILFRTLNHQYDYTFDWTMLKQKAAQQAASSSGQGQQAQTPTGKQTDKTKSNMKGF

Row | Compound | IC50 [1] | IC50 [2] | IC50 [3] | IC50 [4]
1 | CN1CCc2[nH]c(-c3ccnc(NC(=O)C(CCN4CCOCC4)c4ccccc4)c3)c(Nc3ccccc3)c2C1=O (stereo not shown) [Example 30, N-[4-(3-anilino-5-methyl-4-oxo-4,5,6,7-tetrahydro-1H-pyrrolo[3,2-c]pyridin-2-yl)pyridin-2-yl]-4-(morpholin-4-yl)-2-phenylbutanamide] | 0.00801 µM | > 20 µM | 0.485 µM | 0.0259 µM
2 | CN1CCc2[nH]c(-c3ccnc(NC(=O)C(CC(F)F)c4ccccc4)c3)c(Nc3ccccc3)c2C1=O (stereo not shown) [Example 33, N-[4-(3-anilino-5-methyl-4-oxo-4,5,6,7-tetrahydro-1H-pyrrolo[3,2-c]pyridin-2-yl)pyridin-2-yl]-4,4-difluoro-2-phenylbutanamide] | 0.00615 µM | > 20 µM | 0.0722 µM | 0.0181 µM
3 | CN1C(=O)c2c([nH]c(-c3ccnc(NC(=O)Cc4ccc(F)cc4)c3)c2Nc2ccccc2)CC1(C)C [Example 44, N-[4-(3-anilino-5,6,6-trimethyl-4-oxo-4,5,6,7-tetrahydro-1H-pyrrolo[3,2-c]pyridin-2-yl)pyridin-2-yl]-2-(4-fluorophenyl)acetamide] | 0.00482 µM | 4.14 µM | 0.671 µM | 0.0107 µM
4 | CC1(C)Cc2[nH]c(-c3ccnc(NC(=O)Cc4ccncc4)c3)c(Nc3ccccc3)c2C(=O)N1 [Example 51, N-[4-(3-anilino-6,6-dimethyl-4-oxo-4,5,6,7-tetrahydro-1H-pyrrolo[3,2-c]pyridin-2-yl)pyridin-2-yl]-2-(pyridin-4-yl)acetamide] | 0.00487 µM | 0.563 µM | 0.0258 µM | 0.00667 µM
5 | CC1(C)Cc2[nH]c(-c3ccnc(NC(=O)Cc4cccnc4)c3)c(Nc3ccccc3)c2C(=O)N1 [Example 52, N-[4-(3-anilino-6,6-dimethyl-4-oxo-4,5,6,7-tetrahydro-1H-pyrrolo[3,2-c]pyridin-2-yl)pyridin-2-yl]-2-(pyridin-3-yl)acetamide] | 0.00491 µM | 0.526 µM | 0.0254 µM | 0.00678 µM
6 | COCCN1CCc2[nH]c(-c3ccnc(NC(=O)Cc4ccc(F)cc4)c3)c(Nc3ccccc3)c2C1=O [Example 53, N-{4-[3-anilino-5-(2-methoxyethyl)-4-oxo-4,5,6,7-tetrahydro-1H-pyrrolo[3,2-c]pyridin-2-yl]pyridin-2-yl}-2-(4-fluorophenyl)acetamide] | 0.00968 µM | 6.03 µM | 0.907 µM | 0.015 µM
7 | O=C(Cc1ccc(F)cc1)Nc1cc(-c2[nH]c3c(c2Nc2ccccc2)C(=O)NC2(CCC2)C3)ccn1 [Example 57, N-[4-(3′-anilino-4′-oxo-1′,4′,5′,7′-tetrahydrospiro[cyclobutane-1,6′-pyrrolo[3,2-c]pyridin]-2′-yl)pyridin-2-yl]-2-(4-fluorophenyl)acetamide] | 0.00201 µM | 0.87 µM | 0.0103 µM | 0.0031 µM
8 | CN1CCc2[nH]c(-c3ccnc(NC(=O)Cc4ccncc4)c3)c(Nc3ccccc3)c2C1=O [Example 64, N-[4-(3-anilino-5-methyl-4-oxo-4,5,6,7-tetrahydro-1H-pyrrolo[3,2-c]pyridin-2-yl)pyridin-2-yl]-2-(pyridin-4-yl)acetamide] | 0.00265 µM | 1.2 µM | 0.031 µM | 0.00551 µM
9 | CN1CCc2[nH]c(-c3ccnc(NC(=O)Cc4ccc(S(C)(=O)=O)cc4)c3)c(Nc3ccccc3)c2C1=O [Example 65, N-[4-(3-anilino-5-methyl-4-oxo-4,5,6,7-tetrahydro-1H-pyrrolo[3,2-c]pyridin-2-yl)pyridin-2-yl]-2-[4-(methanesulfonyl)phenyl]acetamide] | 0.00151 µM | 0.49 µM | 0.0175 µM | 0.00546 µM
10 | CN1CCc2[nH]c(-c3ccnc(NC(=O)Cc4ccc(C(F)(F)F)cc4)c3)c(Nc3ccccc3)c2C1=O [Example 66, N-[4-(3-anilino-5-methyl-4-oxo-4,5,6,7-tetrahydro-1H-pyrrolo[3,2-c]pyridin-2-yl)pyridin-2-yl]-2-[4-(trifluoromethyl)phenyl]acetamide] | 0.00275 µM | 8.55 µM | 0.0335 µM | 0.00557 µM
11 | CN1CCc2[nH]c(-c3ccnc(NC(=O)Cc4cccnc4)c3)c(Nc3ccccc3)c2C1=O [Example 67, N-[4-(3-anilino-5-methyl-4-oxo-4,5,6,7-tetrahydro-1H-pyrrolo[3,2-c]pyridin-2-yl)pyridin-2-yl]-2-(pyridin-3-yl)acetamide] | 0.00241 µM | 0.997 µM | 0.0446 µM | 0.00379 µM
12 | Cc1ccc(CC(=O)Nc2cc(-c3[nH]c4c(c3Nc3ccccc3)C(=O)N(C)CC4)ccn2)cc1 [Example 68, N-[4-(3-anilino-5-methyl-4-oxo-4,5,6,7-tetrahydro-1H-pyrrolo[3,2-c]pyridin-2-yl)pyridin-2-yl]-2-(4-methylphenyl)acetamide] | 0.0032 µM | 2.1 µM | 0.0742 µM | 0.00363 µM
13 | CN1CCc2[nH]c(-c3ccnc(NC(=O)Cc4cccc(S(C)(=O)=O)c4)c3)c(Nc3ccccc3)c2C1=O [Example 69, N-[4-(3-anilino-5-methyl-4-oxo-4,5,6,7-tetrahydro-1H-pyrrolo[3,2-c]pyridin-2-yl)pyridin-2-yl]-2-[3-(methanesulfonyl)phenyl]acetamide] | 0.00313 µM | 0.51 µM | 0.0817 µM | 0.00468 µM
14 | CN1CCc2[nH]c(-c3ccnc(NC(=O)Cc4ccc(C(F)F)cc4)c3)c(Nc3ccccc3)c2C1=O [Example 78, N-[4-(3-anilino-5-methyl-4-oxo-4,5,6,7-tetrahydro-1H-pyrrolo[3,2-c]pyridin-2-yl)pyridin-2-yl]-2-[4-(difluoromethyl)phenyl]acetamide] | 0.00295 µM | 3.09 µM | 0.0955 µM | 0.00793 µM
15 | CN1CCc2[nH]c(-c3ccnc(NC(=O)Cc4ccc(F)cc4F)c3)c(Nc3ccccc3)c2C1=O [Example 82, N-[4-(3-anilino-5-methyl-4-oxo-4,5,6,7-tetrahydro-1H-pyrrolo[3,2-c]pyridin-2-yl)pyridin-2-yl]-2-(2,4-difluorophenyl)acetamide] | 0.00226 µM | 1.15 µM | 0.162 µM | 0.00552 µM
16 | CN1CCc2[nH]c(-c3ccnc(NC(=O)Cc4ccc(F)c(F)c4)c3)c(Nc3ccccc3)c2C1=O [Example 83, N-[4-(3-anilino-5-methyl-4-oxo-4,5,6,7-tetrahydro-1H-pyrrolo[3,2-c]pyridin-2-yl)pyridin-2-yl]-2-(3,4-difluorophenyl)acetamide] | 0.00303 µM | 2.92 µM | 0.0614 µM | 0.0073 µM
17 | Cc1cc(CC(=O)Nc2cc(-c3[nH]c4c(c3Nc3ccccc3)C(=O)N(C)CC4)ccn2)ccn1 [Example 85, N-[4-(3-anilino-5-methyl-4-oxo-4,5,6,7-tetrahydro-1H-pyrrolo[3,2-c]pyridin-2-yl)pyridin-2-yl]-2-(2-methylpyridin-4-yl)acetamide] | 0.00178 µM | 0.937 µM | 0.0265 µM | 0.00336 µM
18 | CC1(C)Cc2[nH]c(-c3ccnc(NC(=O)Cc4ccc(F)cc4)c3)c(Nc3ccccc3F)c2C(=O)N1 [Example 86, N-{4-[3-(2-fluoroanilino)-6,6-dimethyl-4-oxo-4,5,6,7-tetrahydro-1H-pyrrolo[3,2-c]pyridin-2-yl]pyridin-2-yl}-2-(4-fluorophenyl)acetamide] | 0.00444 µM | 6.47 µM | 0.11 µM | 0.00948 µM
19 | O=C(Cc1ccc(F)cc1)Nc1cc(-c2[nH]c3c(c2Nc2cccc(F)c2Cl)C(=O)NCC3)ccn1 [Example 87, N-{4-[3-(2-chloro-3-fluoroanilino)-4-oxo-4,5,6,7-tetrahydro-1H-pyrrolo[3,2-c]pyridin-2-yl]pyridin-2-yl}-2-(4-fluorophenyl)acetamide] | 0.00257 µM | 0.158 µM | 0.0647 µM | 0.00602 µM
20 | CC1(C)Cc2[nH]c(-c3ccnc(NC(=O)Cc4ccc(F)cc4)c3)c(Nc3cccc(F)c3Cl)c2C(=O)N1 [Example 112, N-{4-[3-(2-chloro-3-fluoroanilino)-6,6-dimethyl-4-oxo-4,5,6,7-tetrahydro-1H-pyrrolo[3,2-c]pyridin-2-yl]pyridin-2-yl}-2-(4-fluorophenyl)acetamide] | 0.00669 µM | 3.43 µM | 0.167 µM | 0.00841 µM
21 | CN1CCc2[nH]c(-c3ccnc(NC(=O)Cc4cnccn4)c3)c(Nc3ccccc3)c2C1=O [Example 114, N-[4-(3-anilino-5-methyl-4-oxo-4,5,6,7-tetrahydro-1H-pyrrolo[3,2-c]pyridin-2-yl)pyridin-2-yl]-2-(pyrazin-2-yl)acetamide] | 0.00243 µM | 2.06 µM | 0.227 µM | 0.0047 µM
22 | CN1CCc2[nH]c(-c3ccnc(NC(=O)Cc4ccccn4)c3)c(Nc3ccccc3)c2C1=O [Example 115, N-[4-(3-anilino-5-methyl-4-oxo-4,5,6,7-tetrahydro-1H-pyrrolo[3,2-c]pyridin-2-yl)pyridin-2-yl]-2-(pyridin-2-yl)acetamide] | 0.00241 µM | 3.67 µM | 0.248 µM | 0.00509 µM
